For data set [1], the target named is T1, Tnk1 (thirty-eight negative kinase 1) (Homo sapiens, UniProt Q13470).
T1 construct: Tnk1^ΔCT, residues 1-510 (SAM, kinase and SH3 domains), N-terminal 6x-His and GST tags, Sf9
T1 sequence (Q13470 1-510 isoform Q13470-2): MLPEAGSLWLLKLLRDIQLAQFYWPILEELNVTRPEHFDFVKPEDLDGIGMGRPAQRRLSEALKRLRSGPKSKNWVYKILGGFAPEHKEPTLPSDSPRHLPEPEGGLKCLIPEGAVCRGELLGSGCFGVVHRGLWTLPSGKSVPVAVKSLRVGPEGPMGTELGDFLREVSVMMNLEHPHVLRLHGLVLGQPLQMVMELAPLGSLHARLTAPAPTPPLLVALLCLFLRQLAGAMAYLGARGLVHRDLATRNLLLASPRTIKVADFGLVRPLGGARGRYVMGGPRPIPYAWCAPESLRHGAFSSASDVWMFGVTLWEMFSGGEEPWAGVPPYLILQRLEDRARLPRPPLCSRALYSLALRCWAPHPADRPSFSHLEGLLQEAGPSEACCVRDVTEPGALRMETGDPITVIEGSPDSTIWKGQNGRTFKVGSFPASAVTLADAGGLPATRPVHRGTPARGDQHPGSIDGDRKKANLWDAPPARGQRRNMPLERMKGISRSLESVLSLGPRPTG
Put plainly: single-concentration ([…]) inhibition, […]-ATP phosphocellulose kinase assay, WASP peptide. The data set is classed as biochemical. The conditions noted are these: read-out: % inhibition at 10 μM.

Data set [2] has as its target T1, Tnk1 (thirty-eight negative kinase 1). Put plainly: […]-ATP phosphocellulose kinase assay, WASP peptide, dose-response. The data set is classed as biochemical.
Substrate in data set [3]: Nc1ncnc2c1ncn2[C@@H]1O[C@H](COP(=O)(O)OP(=O)(O)OP(=O)(O)O)[C@@H](O)[C@H]1O
Kind of data set: purified protein. The conditions noted are these: MgCl2. Format: biochemical, Homo sapiens.

As for `COc1cc2ncnc(Nc3ccc(F)c(Cl)c3)c2cc1OCCCN1CCOCC1` [gefitinib], in data set [1], the inhibition at 10 µM lay in the range of 30 to 40%.

For `CN1CCN(c2ccc(Nc3ncc(Cl)c(NC[C@H]4CCCO4)n3)cc2)CC1` [(R)-9b], 470 nM corresponded to half-maximal inhibition in data set [2] (IC50). `C#Cc1cccc(Nc2ncnc3cc(OCCOC)c(OCCOC)cc23)c1` [erlotinib]: in data set [1], the inhibition at 10 µM lay in the range of 30 to 40%.

B1: Tnk1 (thirty-eight negative kinase 1) (Homo sapiens) (protein)
chain: MLPEAGSLWLLKLLRDIQLAQFYWPILEELNVTRPEHFDFVKPEDLDGIGMGRPAQRRLSEALKRLRSGPKSKNWVYKILGGFAPEHKEPTLPSDSPRHLPEPEGGLKCLIPEGAVCRGELLGSGCFGVVHRGLWTLPSGKSVPVAVKSLRVGPEGPMGTELGDFLREVSVMMNLEHPHVLRLHGLVLGQPLQMVMELAPLGSLHARLTAPAPTPPLLVALLCLFLRQLAGAMAYLGARGLVHRDLATRNLLLASPRTIKVADFGLVRPLGGARGRYVMGGPRPIPYAWCAPESLRHGAFSSASDVWMFGVTLWEMFSGGEEPWAGVPPYLILQRLEDRARLPRPPLCSRALYSLALRCWAPHPADRPSFSHLEGLLQEAGPSEACCVRDVTEPGALRMETGDPITVIEGSPDSTIWKGQNGRTFKVGSFPASAVTLADAGGLPATRPVHRGTPARGDQHPGSIDGDRKKANLWDAPPARGQRRNMPLERMKGISRSLESVLSLGPRPTG
notes: Tnk1^ΔCT, residues 1-510 (SAM, kinase and SH3 domains), N-terminal 6x-His and GST tags, Sf9
Turning to B1, in data set [3], the Km turned out to be 70 µM.

For orientation: inhibition means the relative decrease from the control value, in per cent. One may read the IC50 as the concentration that gives 50% inhibition. The term Km denotes the substrate concentration at which the rate is half of its maximum.

Values taken from article PMC9703632, “The noncatalytic regions of the tyrosine kinase Tnk1 are important for activity and substrate specificity” (The Journal of Biological Chemistry, 2022).
